What all share (type): cell-based
Assay [1] addresses T1, MRGPRX2 (Homo sapiens, UniProt Q96LB1).
T1 sequence (Q96LB1 1-330): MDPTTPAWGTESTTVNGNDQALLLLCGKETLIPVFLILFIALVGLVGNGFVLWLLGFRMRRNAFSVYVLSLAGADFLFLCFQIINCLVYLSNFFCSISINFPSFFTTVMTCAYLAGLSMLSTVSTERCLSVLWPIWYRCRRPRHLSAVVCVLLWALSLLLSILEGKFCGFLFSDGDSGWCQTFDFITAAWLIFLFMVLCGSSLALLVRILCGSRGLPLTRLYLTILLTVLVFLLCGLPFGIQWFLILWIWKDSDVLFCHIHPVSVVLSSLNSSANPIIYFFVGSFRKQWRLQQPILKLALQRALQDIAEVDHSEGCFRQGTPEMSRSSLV
Kind of assay: MRGPRX2 FLIPR Calcium Mobilization Assay. Particulars: CHO-K1 cells stably expressing human MRGPRX2; Ca2+ release; agonist Cortistatin-14 at EC80. Further details: host or cells: CHO-K1. Here is the method: Example A. MRGPRX2 FLIPR Calcium Mobilization Assay
Chinese hamster ovary (CHO-K1) cells stably expressing human MRGPRX2 were purchased from Genescript (Piscataway, NJ). The cells were maintained in culture medium (Ham's F-12K) containing 10% (v/v) FBS, 200 μg/mL Zeocin, 100 units/mL penicillin G and 100 μg/mL streptomycin (Life Technologies, Carlsbad, CA). For the assay, the cells were harvested and resuspended with culture medium without Zeocin before plating at 8000 cells per well in 20 μL in 384-well black clear bottom cell culture plates (VWR, Radnor, PA). After 24 hour culture at 37° C. and 5% CO2, the cells were loaded with 20 μL/well of calcium dye (FLIPR Calcium 6 Assay Kit, Molecular Devices, San Jose, CA) diluted in loading buffer (1× Hank's Balanced Salt Solution (HBSS), 5 mM probenecid, 20 mM 4-(2-hydroxyethyl)-1-piperazineethanesulfonic acid (HEPES), pH 7.4, VWR, Radnor, PA) followed with 45 min incubation at 37° C. and 40 min. at r.t. in the dark. Cells were then treated with the addition of 10 uL/well test compounds with a range of increasing concentrations diluted in the assay buffer (1×HBSS, 20 mM HEPES, pH 7.4, VWR, Radnor, PA) with FLIPR Penta (Molecular Devices. San Jose, CA) and incubated for 30 min. at r.t. Ca^2+ release was measured with FLIPR Penta with 10 s basal fluorescence measurement, then 12.5 μL of 5× agonist Cortistatin-14 (Tocris, Minneapolis, MN) at final concentration corresponding to the EC80 were added followed with continued fluorescence signal monitoring for an additional 110 s. The base line adjusted (median of first 10s base line) max value of the Relative Fluorescence Unit (RFU) was plotted against compound concentrations. Wells with no compound were served as the positive controls, and wells with high concentration of reference antagonist were used as negative controls. IC50 curves were globally fitted with 3- or 4-parameter Hill equation in a Genedata Screener (Genedata Basel, Switzerland).
(In general: A change in cytosolic calcium serves as a functional read-out for many receptors and channels.)

The target of assay [2] is T1, MRGPRX2. Kind of assay: MRGPRX2 β-Arrestin Assay. Further details: host or cells: PathHunter CHO-K1. Particulars: PathHunter CHO-K1 MRGPRX2 β-Arrestin cell line; agonist Cortistatin 14 0.25 μM. An excerpt: Example C: MRGPRX2 β-Arrestin Assay
This assay measures compound inhibition of β-Arrestin recruitment, which is part of the G protein-independent pathway that results from the ligand-activated GPCR phosphorylation by specific GPCR kinases. The PathHunter CHO-K1 MRPGRX2 B-Arrestin Cell line stably expressing ProLink tagged MRGPRX2 and Enzyme Acceptor Tagged B-Arrestin was purchased from Eurofins DiscoverX, (Fremont, CA).
The cells were maintained in culture medium from the Europhins DiscoverX Cell Culture Kit-107 which includes FBS, hygromycin B and G418. For the assay, the cells were harvested and were resuspended with Cell Plating Reagent 2 (Eurofins DiscoverX). Cells were added 10000 cells in 25 μL/well to a 384-well black cell culture plate (Greiner VWR, Radnor, PA) which contained 125 nL/well of compound at a selected serially diluted concentration range or DMSO. The plate was incubated at 37° C. with 5% CO2 for 1 h. 2 μL/well of agonist Cortistatin 14 was diluted in Protein Dilution Buffer, (Eurofins DiscoverX) for a final concentration of 0.25 μM, was added and the plate was incubated at 37° C. with 5% CO2 for 90 min. 14 μL/well of Detection Reagent Mix (PathHunter Detection Kit, Eurofins DiscoverX) was added to the plates and further incubated for 1 h in the dark. Plates were read on the PHERAstar microplate reader (BMG Labtech Cary, NC) measuring luminescence 0.1 to 1 s per well. Data was normalized using DMSO only wells and wells with high concentration of reference antagonist as controls. Compound IC50 curves were globally fitted with 3- or 4-parameter Hill equation in a Genedata Screener (Genedata Basel, Switzerland).

Assay [3] concerns the target T1, MRGPRX2. In words: MRGPRX2 IP1 HTRF Assay. On the set-up: host or cells: CHO-K1. Particulars: CHO-K1 cells stably expressing human MRGPRX2; IP1 accumulation; agonist Cortistatin 14 1 μM. The source says:
Example B: MRGPRX2 IP1 HTRF Assay
This assay measures compound inhibition of myo-Inositol 1 phosphate (IP1) accumulation in CHO-K1 cells. Chinese hamster ovary (CHO-K1) cells stably expressing human MRGPRX2 were purchased from GenScript (Piscataway, NJ).
For the HTRF IP1 determination, an IP-One GqKit (Perkin Elmer Cisbio, Waltham, MA), which includes all reagents and buffers in this protocol, was used. The cells were maintained in culture medium (Ham's F-12K) containing 10% (v/v) FBS, and 200 μg/mL Zeocin. For the assay, the cells were harvested and resuspended in culture medium with 2% FBS and without Zeocin, then were passed through a 40 μm filter. Cells were added at 20000 cells in a 5 μL/well to a 384-well white small volume cell culture plate (Greiner VWR, Radnor, PA) which contained 50 nL/well of test compound serially diluted at a selected concentration range in DMSO. 5 μL/well of prepared 2× Stimulation Buffer2 was then added to plates and was incubated at 37° C. with 5% CO2 for 1 h. 5 μL/well of agonist Cortistatin 14 (Bio-TechneR&D Systems, Minneapolis, MN) in 1× Stimulation Buffer 2, for a 1 μM final concentration, was then added to plates and incubated at 37° C. with 5% CO2 for 1 h. 6 μL/well of 1:20 diluted Detection Reagent Mix (d2 and Cryptate) was added to the plates and incubated for 1 h in the dark. Plates were read on the PHERAstar microplate reader (BMG Labtech Cary, NC) to determine the HTRF ratio of the acceptor and donor emission signals. The IP1 concentrations were calculated from a standard curve following the IP-One GQ kit instructions. Wells with DMSO only and wells with high concentration of reference antagonist were used as controls for normalization. Compound IC50 curves were globally fitted with 3- or 4-parameter Hill equation in a Genedata Screener (Genedata Basel, Switzerland).

SMILES strings stand for the structures.

On to `CC1(C)CN(C(c2cc3ncc(Oc4ccc(F)cc4F)cc3cn2)C(F)(F)F)CCO1` (centres unmarked) [Example 8, 4-(1-(3-(2,4-Difluorophenoxy)-1,6-naphthyridin-7-yl)-2,2,2-trifluoroethyl)-2,2-dimethylmorpholine], for which the IC50 on MRGPRX2 [1] and at MRGPRX2 [2] was 0.0001 to 0.1 µM throughout. For `CC1(CO)CCCN(C(c2cc3ncc(Oc4ccc(F)cc4F)cc3cn2)C(F)(F)F)C1` (centres unmarked) [Example 9, (1-(1-(3-(2,4-Difluorophenoxy)-1,6-naphthyridin-7-yl)-2,2,2-trifluoroethyl)-3-methylpiperidin-3-yl)methanol], the IC50 at MRGPRX2 [1] and at MRGPRX2 [2] was 0.0001 to 0.1 µM each time. As to `N#CC1CCCN(C(c2cc3ncc(Oc4ccc(F)cc4F)cc3cn2)C(F)(F)F)C1` (centres unmarked) [Example 10, 1-(1-(3-(2,4-Difluorophenoxy)-1,6-naphthyridin-7-yl)-2,2,2-trifluoroethyl)piperidine-3-carbonitrile], the IC50 at MRGPRX2 [1] and on MRGPRX2 [2] was 0.0001 to 0.1 µM in each case. `Fc1ccc(Oc2cnc3cc(C(N4CC5CCC4C5)C(F)(F)F)ncc3c2)c(F)c1` (centres unmarked) [Example 11, 7-(1-(2-Azabicyclo[2.2.1]heptan-2-yl)-2,2,2-trifluoroethyl)-3-(2,4-difluorophenoxy)-1,6-naphthyridine] registered an IC50 on MRGPRX2 [2] of 0.1 to 1 µM. For the molecule `OC[C@@H]1CCCN1C(c1cc2ncc(Oc3ccc(F)cc3F)cc2cn1)C(F)(F)F` (stereo partly drawn) [Example 13, ((2S)-1-(1-(3-(2,4-Difluorophenoxy)-1,6-naphthyridin-7-yl)-2,2,2-trifluoroethyl)pyrrolidin-2-yl)methanol], the IC50 on MRGPRX2 [1] and at MRGPRX2 [2] was 0.0001 to 0.1 µM each time. As to `O=c1ccc(C2CN(C(c3cc4ncc(Oc5ccc(F)cc5F)cc4cn3)C(F)(F)F)CCC2(F)F)c[nH]1` (centres unmarked) [Example 17, 5-(1-(1-(3-(2,4-Difluorophenoxy)-1,6-naphthyridin-7-yl)-2,2,2-trifluoroethyl)-4,4-difluoropiperidin-3-yl)pyridin-2(1H)-one], the IC50 on MRGPRX2 [3] and at MRGPRX2 [2] was 0.0001 to 0.1 µM in each case.

With `Fc1ccc(Oc2cnc3cc(C(N4CC(F)(F)CC4c4ccccc4)C(F)(F)F)ncc3c2)c(F)c1` (centres unmarked) [Example 18, 7-(1-(4,4-Difluoro-2-phenylpyrrolidin-1-yl)-2,2,2-trifluoroethyl)-3-(2,4-difluorophenoxy)-1,6-naphthyridine], the IC50 at MRGPRX2 [3] and on MRGPRX2 [2] was 0.0001 to 0.1 µM throughout.

Turning to `Fc1ccc(Oc2cnc3cc(C(N4CCC(F)(F)C4c4ccccc4)C(F)(F)F)ncc3c2)c(F)c1` (centres unmarked) [Example 19, 7-(1-(3,3-Difluoro-2-phenylpyrrolidin-1-yl)-2,2,2-trifluoroethyl)-3-(2,4-difluorophenoxy)-1,6-naphthyridine], the IC50 on MRGPRX2 [3] and on MRGPRX2 [2] was 0.0001 to 0.1 µM each time. As to `O=c1ccc(C2CCCN2C(c2cc3ncc(Oc4ccc(F)cc4F)cc3cn2)C(F)(F)F)c[nH]1` (centres unmarked) [Example 20, 5-(1-(1-(3-(2,4-Difluorophenoxy)-1,6-naphthyridin-7-yl)-2,2,2-trifluoroethyl)pyrrolidin-2-yl)pyridin-2(1H)-one], the IC50 at MRGPRX2 [3] and on MRGPRX2 [2] was 0.0001 to 0.1 µM each time. For the molecule `CC1(O)CCCN(C(c2cc3ncc(Oc4ccc(F)cc4F)cc3cn2)C(F)F)C1` (centres unmarked) [Example 21, 1-(1-(3-(2,4-Difluorophenoxy)-1,6-naphthyridin-7-yl)-2,2-difluoroethyl)-3-methylpiperidin-3-ol], the half-maximal inhibitory concentration (IC50) at MRGPRX2 [1] and on MRGPRX2 [2] was 0.0001 to 0.1 µM throughout.

For `Fc1ccc(Oc2cnc3cc(C(C(F)F)N4CCC(F)(F)CC4)ncc3c2)c(F)c1` (centres unmarked) [Example 22, 3-(2,4-Difluorophenoxy)-7-(1-(4,4-difluoropiperidin-1-yl)-2,2-difluoroethyl)-1,6-naphthyridine], the IC50 at MRGPRX2 [1] and at MRGPRX2 [2] was 0.0001 to 0.1 µM throughout.

Consider `Fc1ccc(Oc2cnc3cc(C(C(F)F)N4CCCC(c5ccn[nH]5)C4)ncc3c2)c(F)c1` (centres unmarked) [Example 23, 7-(1-(3-(1H-Pyrazol-5-yl)piperidin-1-yl)-2,2-difluoroethyl)-3-(2,4-difluorophenoxy)-1,6-naphthyridine], for which the IC50 at MRGPRX2 [1] and at MRGPRX2 [2] was 0.0001 to 0.1 µM throughout. With `NC(=O)[C@@H]1CCCN1C(c1cc2ncc(Oc3ccc(F)cc3F)cc2cn1)C(F)F` (stereo partly drawn) [Example 24, (2S)-1-(1-(3-(2,4-Difluorophenoxy)-1,6-naphthyridin-7-yl)-2,2-difluoroethyl)pyrrolidine-2-carboxamide], the half-inhibitory concentration (IC50) on MRGPRX2 [1] and on MRGPRX2 [2] was 0.0001 to 0.1 µM each time. Take `Fc1ccc(Oc2cnc3cc(C(C(F)F)N4CCCC4c4ccccc4)ncc3c2)c(F)c1` (centres unmarked) [Example 25, 7-(2,2-Difluoro-1-(2-phenylpyrrolidin-1-yl)ethyl)-3-(2,4-difluorophenoxy)-1,6-naphthyridine]: the IC50 on MRGPRX2 [1] and at MRGPRX2 [2] was 0.0001 to 0.1 µM each time.

In the case of `O=c1ccc(C2CN(C(c3cc4ncc(Nc5ccc(F)cc5F)cc4cn3)C(F)(F)F)CCC2(F)F)c[nH]1` (centres unmarked) [Example 26, 5-(1-(1-(3-((2,4-Difluorophenyl)amino)-1,6-naphthyridin-7-yl)-2,2,2-trifluoroethyl)-4,4-difluoropiperidin-3-yl)pyridin-2(1H)-one], the IC50 at MRGPRX2 [2] was greater than 1 µM. On MRGPRX2 [2], `O=c1ccc(C2CN(C(c3cc4ncc(Cc5ccccc5)cc4cn3)C(F)(F)F)CCC2(F)F)c[nH]1` (centres unmarked) [Example 27, 5-(1-(1-(3-Benzyl-1,6-naphthyridin-7-yl)-2,2,2-trifluoroethyl)-4,4-difluoropiperidin-3-yl)pyridin-2(1H)-one] showed an IC50 greater than 1 µM.

Usually IC50 stands for the concentration at which inhibition is half-maximal.

The record behind these values is patent US20250206734A1, “BICYCLIC HETEROCYCLES AS MRGPRX2 ANTAGONISTS” (Incyte Corporation, priority 2023, published 2025).
